# How the values were obtained:
# PC12 cells [1] = assay: Neuronal protective efficacy against 6-OHDA (MTT); assay type: cell-based; details: Rattus norvegicus, PC-12, 6-OHDA 40 μM, Control = 100, read-out: cell viability (AVE); for viability at 0.1 µM: compound 0.1 μM; for viability at 0.3 µM: compound 0.3 μM; for viability at 1 µM: compound 1 μM
# Procedure: (§1) The neuronal toxicity substances 6-OHDA (6-hydroxydopamine hydrobromide) and MPP+ (1-methyl-4-phenylpyridinium) were purchased from Sigma-Aldrich (Saint Louis, MO, USA) and made into 100 mM DMSO stock. PC12 cells were seeded on 96-well plates with 4 pieces of 1×10 per well and incubated for one day. The cells were pretreated with each concentration of embodied compound for 1 h. Subsequently, 40 μM 6-OHDA and 2 mM MPP^+ were added and incubated for 24 hours, respectively. Subsequently, cell viability was measured using MTT (Invitrogen, MA, USA).
# [2] = test system: α-Syn transgenic Parkinson's disease mouse model; assay: α-Syn transgenic Parkinson's disease mouse model: TH staining of striatum; assay type: in vivo; details: 9 months of age; Example 3 2/10/50 mg/kg, Example 2 2 mg/kg PO QD; vs G2
# Procedure: The test drug was administered once daily (QD) via oral administration (PO) with a solution of 5 ml/kg for 5 months from 4 months to 9 months of age. Motor behavior tests (beam test) and neurological scores (modified Irwin test) were performed at 4 months (before administration), 7 months, and 9 months. After the final behavioral test, tissue samples were taken. Weight was measured on the same day once a week from 4 months of age until the end of the study.
# At 9 months of age, the measurement period ended, the mice were anesthetized, and then the experiment was terminated by cardiac puncture according to IACUC guidelines. Mice were perfused transcardially with 0.9% saline for tissue staining, followed by 4% paraformaldehyde until the mice were fixed. The brains were isolated and immobilized by soaking in 4% paraformaldehyde at 4° C. for 24 hours, followed by 30% sucrose added to PBS containing 0.02% sodium azide and stored at 4° C. for 3 days. Brain samples embedded in OCT compounds were sectioned to a thickness of 20 μm using Leica CM1950 (Leica Microsystems, Germany). The sections were stored at 4° C. in a preservation solution until they were stained by antibodies. […]
# TH-stained brain tissue was imaged using an immunofluorescence microscope (Olympus, BZ21) in Olympus. The fluorescence intensity of the striatum was analyzed using Image J software.
# [3] = test system: CDAHFD-induced non-alcoholic steatohepatitis mouse model; assay: CDAHFD-induced non-alcoholic steatohepatitis mouse model: liver fibrosis (Picrosirius red); assay type: in vivo; details: for Picrosirius red staining area in the liver: Selonsertib 30 mg/kg, Example 3 10 and 30 mg/kg, Example 2 10 and 30 mg/kg PO QD, CDAHFD diet 4 and 8 weeks
# Procedure: Creation of CDAHFD-induced NASH model and drug administration were carried out by dividing C57BL/6 male mice at 3 weeks of age into 7 groups as shown in Table 16 below. The control group (G1) was fed standard feed and water. Groups G2 to G7 were fed the CDAHFD (Research Diet Inc, #A06071302) diet for 4 and 8 weeks.
# Picrosirius red staining was used for histological visualization of collagen fibers. Histopathology analysis evaluated the efficacy of improving liver fibrosis.
# For mice in each group, three sections of the liver fixed with 4% PFA (paraformaldehyde) were prepared with paraffin blocks. Paraffin blocks were sectioned to a thickness of 5 μm (Histocore AUTOCUT R, Leica Microsystems, Germany) and the sections were mounted on silane-coated slides (MUTO, JPN) and stored until staining.
# Xylene was used to remove paraffin from the slides, and the slides were moisturized and washed. The slides were stained with a solution of Picrosirius red (ab150681, Abcam, UK) and washed off with a solution of acetic acid. The slides were fitted after dehydration and cleaning using alcohol and xylene. For each section, two images of different areas were taken using a microscope (Axioscan7, ZEISS, Germany). The fibrotic area was measured using image J software compared to the total area. FIGS. 23a and 23b are graphs and images of Picrosirius red stained area ratios in the liver of a CDAHFD-induced mouse model of nonalcoholic steatohepatitis.
# PC12 cells [4] = assay: Neuronal protective efficacy against MPP+ (MTT); assay type: cell-based; details: Rattus norvegicus, PC-12, MPP 2 mM, Control = 100, read-out: cell viability (AVE); for viability at 0.1 µM: compound 0.1 μM; for viability at 0.3 µM: compound 0.3 μM; for viability at 1 µM: compound 1 μM
# Procedure: as §1
Structure (SMILES),viability at 0.1 µM (PC12 cells [1]),viability at 0.3 µM (PC12 cells [1]),viability at 1 µM (PC12 cells [1]),TH staining intensity of striatum [2],Picrosirius red staining area in the liver [3],viability at 0.1 µM (PC12 cells [4]),viability at 0.3 µM (PC12 cells [4]),viability at 1 µM (PC12 cells [4]),"efficacy in improving liver fibrosis (Picrosirius red) ([3]; 30 mg/kg PO QD, after 4 weeks of the CDAHFD diet)"
"Cc1cc(F)c(C(=O)Nc2cccc(-n3nnc4c3CCCC4)n2)cc1-n1cnc(C2CC2)c1 [Example 3, 5-(4-cyclopropyl-1H-imidazole-1-yl)-2-fluoro-4-methyl-N-(6-(4,5,6,7-tetrahydro-1H-benzo[d][1,2,3]triazole-1-yl)pyridine-2-yl)benzamide]",90%,92%,92.8%,significantly higher than that of group G2,significantly reduced,87.4%,87.6%,89.9%,–
"Cc1cc(F)c(C(=O)Nc2cccc(-n3nnc4c3CCC4)n2)cc1-n1cnc(C2CC2)c1 [Example 2, 5-(4-cyclopropyl-1H-imidazole-1-yl)-N-(6-(5,6-dihydrocyclopenta[d][1,2,3]triazole-1 (4H)-yl)pyridine-2-yl)-2-fluoro-4-methylbenzamide]",88.8%,91.5%,96.8%,significantly higher than that of group G2,significantly reduced,83.9%,91.7%,92.4%,most improved efficacy

# Reference: US20260138969A1 (Korea Research Institute of Chemical Technology, priority 2023, published 2026)
